The record followed here is US4175123A, “Amino-sugar derivatives, process for their preparation and pharmaceutical composition thereof” (Bayer Aktiengesellschaft, priority 1976, dated 1979).

The target of the experiment is T1, intestinal disaccharidase complex (saccharase) (Sus scrofa, UniProt P56729).
T1 construct: both subunits cut from one SI precursor
Description: In vitro saccharase inhibition test. The settings on record: for specific inhibitory activity (saccharase inhibitor units per gram): pH 6.25, 37° C., 20 minutes, sucrose substrate. In kind it is biochemical, pig. The source says: In vitro saccharase inhibition test
The in vitro saccharase inhibition test makes it possible to determined the enzyme inhibitory activity of a sample by comparing the activity of the solubilised intestinal disaccharidase complex in the presence of the inhibitor with its activity in the absence (so-called 100% value) of the inhibitor. A virtually glucose-free (<100 ppm) saccharose is used here as the substrate, which determines the specificity of the inhibition test; the enzyme activity determination is based on the colorometric determination of liberated glucose by means of glucoseoxydase, peroxydase and 2,2-azino-di-[3-ethyl-benzthiazoline-6-sulphonate] (=ABTS) as the chromogen.
A saccharase inhibitor unit (SIU) is defined as that inhibitory activity which reduces a given saccharolytic activity in a defined test batch by one unit (saccharase unit=SU); the saccharase unit is defined here as that enzyme activity which, under given conditions, in one minute splits 1 μmol of sucrose and thus leads to the liberation of 1 μmol each of glucose, which is determine in the test, and fructose, which is not detected in the test.
The intestinal disaccharidase complex is obtained from pig's small intestine mucosa by trypsin digestion, precipitation from 66% ethanol at -20° C., taking up of the precipitate in 100 mM phosphate buffer of pH 7.0 and concluding dialysis against the same buffer.
100 μl of a dilution of the intestinal disaccharidase complex in 0.1 M maleate buffer of pH 6.25 are added to 10 μl of a sample solution which is diluted so that the extinction of the test batch is at least 10%, but not more than 25%, below that of the 100% value, and the mixture is pre-incubated for 10 minutes at 37° C. The dilution of the disaccharidase complex is to be adjusted to an activity of 0.05 SU/ml. […] In order to develop the colour, the mixture is incubated for 30 minutes at 37° C., after which it is diluted with 2 ml of tris buffer and measured photometrically at 420 nm against a reagent blank (with enzyme but without sucrose). […]

T1 sequence (P56729 with tags, fused parts or gaps): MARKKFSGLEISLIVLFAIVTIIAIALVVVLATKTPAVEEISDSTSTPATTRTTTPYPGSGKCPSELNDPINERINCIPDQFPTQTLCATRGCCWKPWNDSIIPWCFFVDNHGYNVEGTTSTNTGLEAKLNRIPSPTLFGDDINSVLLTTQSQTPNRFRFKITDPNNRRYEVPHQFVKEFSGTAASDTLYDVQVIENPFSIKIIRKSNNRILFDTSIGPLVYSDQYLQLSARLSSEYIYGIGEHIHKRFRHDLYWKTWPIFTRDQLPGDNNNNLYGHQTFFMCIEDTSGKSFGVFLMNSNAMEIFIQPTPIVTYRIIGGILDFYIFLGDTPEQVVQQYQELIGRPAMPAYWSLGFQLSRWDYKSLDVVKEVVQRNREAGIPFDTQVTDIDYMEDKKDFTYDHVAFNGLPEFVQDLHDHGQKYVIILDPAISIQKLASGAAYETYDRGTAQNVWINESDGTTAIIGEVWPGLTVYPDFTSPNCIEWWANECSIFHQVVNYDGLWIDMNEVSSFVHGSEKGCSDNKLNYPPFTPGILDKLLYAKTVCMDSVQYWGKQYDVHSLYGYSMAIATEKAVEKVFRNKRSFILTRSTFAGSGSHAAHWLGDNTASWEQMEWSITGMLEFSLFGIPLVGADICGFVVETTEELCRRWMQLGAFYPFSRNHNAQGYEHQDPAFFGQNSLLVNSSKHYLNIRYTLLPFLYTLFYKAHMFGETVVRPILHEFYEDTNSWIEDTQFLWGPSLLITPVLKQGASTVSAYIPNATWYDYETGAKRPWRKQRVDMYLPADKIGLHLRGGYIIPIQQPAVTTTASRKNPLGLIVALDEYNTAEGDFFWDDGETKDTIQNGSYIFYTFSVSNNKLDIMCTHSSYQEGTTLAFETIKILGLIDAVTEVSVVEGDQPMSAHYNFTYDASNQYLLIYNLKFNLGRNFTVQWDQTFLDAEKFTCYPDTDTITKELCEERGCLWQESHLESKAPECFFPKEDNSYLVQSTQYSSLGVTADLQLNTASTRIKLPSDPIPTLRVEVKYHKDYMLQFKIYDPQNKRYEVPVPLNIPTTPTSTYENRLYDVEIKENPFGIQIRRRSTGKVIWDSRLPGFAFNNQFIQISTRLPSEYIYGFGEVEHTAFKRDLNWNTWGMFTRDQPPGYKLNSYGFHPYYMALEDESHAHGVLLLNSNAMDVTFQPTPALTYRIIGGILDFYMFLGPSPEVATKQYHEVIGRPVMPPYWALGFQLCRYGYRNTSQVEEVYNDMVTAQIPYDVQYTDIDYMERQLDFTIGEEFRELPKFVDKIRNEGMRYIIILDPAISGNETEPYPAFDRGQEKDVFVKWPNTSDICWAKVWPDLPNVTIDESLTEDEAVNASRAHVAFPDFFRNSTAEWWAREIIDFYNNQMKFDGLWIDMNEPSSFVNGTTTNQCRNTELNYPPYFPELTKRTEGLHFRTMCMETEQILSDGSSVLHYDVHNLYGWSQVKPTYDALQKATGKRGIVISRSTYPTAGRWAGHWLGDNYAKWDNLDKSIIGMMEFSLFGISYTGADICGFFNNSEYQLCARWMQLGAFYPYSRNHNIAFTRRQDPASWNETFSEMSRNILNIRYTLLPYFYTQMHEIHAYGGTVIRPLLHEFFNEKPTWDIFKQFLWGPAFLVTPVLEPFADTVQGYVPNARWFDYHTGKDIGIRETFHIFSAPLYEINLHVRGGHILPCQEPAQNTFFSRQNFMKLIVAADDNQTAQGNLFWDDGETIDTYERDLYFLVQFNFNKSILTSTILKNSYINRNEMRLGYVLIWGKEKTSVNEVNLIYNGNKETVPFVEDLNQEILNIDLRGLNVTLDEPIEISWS

Consider `C[C@H]1O[C@H](O[C@H]2[C@H](O)[C@@H](O)[C@@H](O[C@H]3[C@H](O)[C@@H](O)C(O)O[C@@H]3CO)O[C@@H]2CO)[C@H](O)[C@@H](O)[C@@H]1N[C@H]1C=C(CO)[C@@H](O)[C@H](O)[C@H]1O` (stereo partly drawn) [compound with P+q=2], for which the “specific inhibitory activity (saccharase inhibitor units per gram)” value is recorded as 65,000 SIU/g. Regarding `C[C@H]1O[C@H](O[C@H]2[C@H](O)[C@@H](O)[C@@H](O[C@H]3[C@H](O)[C@@H](O)[C@@H](O[C@H]4[C@H](O)[C@@H](O)C(O)O[C@@H]4CO)O[C@@H]3CO)O[C@@H]2CO)[C@H](O)[C@@H](O)[C@@H]1N[C@H]1C=C(CO)[C@@H](O)[C@H](O)[C@H]1O` (stereo partly drawn) [isomers with p=0 and q=3], under “isolated isomer”, the “in vitro sucrose inhibitory activity” value is listed as 19,000 SIU/g. On to `C[C@H]1O[C@H](O[C@H]2[C@H](O)[C@@H](O)[C@@H](O[C@H]3[C@H](O)[C@@H](O)C(O)O[C@@H]3CO)O[C@@H]2CO)[C@H](O)[C@@H](O)[C@@H]1N[C@H]1C=C(CO)[C@@H](O)[C@H](O)[C@H]1O` (stereo partly drawn) [compound of the formula I (page 2) with m=0 and n=2], for which the “specific inhibitory activity (saccharase inhibitor units per gram)” value is reported as 68,000 SIU/g.
